Measurements from the supplement of paper PMC10307832.

What was measured:
Assay in all cases: relative viability (nuclei count vs DMSO), 5 days (fraction); higher = more cells survive
NCI-H2342 = test system: NCI-H2342
Outline: (§1)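 Each reported value is a median over duplicate plates. It expresses relative viability: treated-well nuclei count divided by vehicle-well nuclei count. Lung cancer cell lines in 1536-well plates were dosed by pin tool a day after seeding, alone with one drug or with a fixed anchor-drug dose plus five library-drug doses (not always all listed) in √10 steps, and nuclei were counted after 5 days.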

NCI-H1395 = test system: NCI-H1395
Outline: as §1

HARA = test system: HARA
Outline: as §1

NCI-H1437 = test system: NCI-H1437
Outline: as §1

NCI-H2009 = test system: NCI-H2009
Outline: as §1

LOU-NH91 = test system: LOU-NH91
Outline: as §1

SK-LU-1 = test system: SK-LU-1
Outline: as §1

NCI-H2170 = test system: NCI-H2170
Outline: as §1

BEN = test system: BEN
Outline: as §1

HCC-827 = test system: HCC-827
Outline: as §1

NCI-H661 = test system: NCI-H661
Outline: as §1

NCI-H1355 = test system: NCI-H1355
Outline: as §1

NCI-H2405 = test system: NCI-H2405
Outline: as §1

NCI-H1734 = test system: NCI-H1734
Outline: as §1

NCI-H2087 = test system: NCI-H2087
Outline: as §1

LC-2-ad = test system: LC-2-ad
Outline: as §1

SK-MES-1 = test system: SK-MES-1
Outline: as §1

NCI-H2228 = test system: NCI-H2228
Outline: as §1

EKVX = test system: EKVX
Outline: as §1

NCI-H647 = test system: NCI-H647
Outline: as §1

NCI-H1792 = test system: NCI-H1792
Outline: as §1

HCC-366 = test system: HCC-366
Outline: as §1

Compound: NC(=O)Nc1cc(-c2cccc(F)c2)sc1C(=O)N[C@H]1CCCNC1 [AZD7762] + CC(=O)c1c(C)c2cnc(Nc3ccc(N4CCNCC4)cn3)nc2n(C2CCCC2)c1=O [Palbociclib] (partner 0.5 µM)
- relative viability (NCI-H2342; first compound 0.01 µM): 0.492
- relative viability (NCI-H2342; first compound 0.03162 µM): 0.513
- relative viability (NCI-H2342; first compound 0.1 µM): 0.447
- relative viability (NCI-H2342; first compound 0.3162 µM): 0.483
- relative viability (NCI-H2342; first compound 1 µM): 0.505
- relative viability (NCI-H1395; first compound 0.01 µM): 0.642
- relative viability (NCI-H1395; first compound 0.03162 µM): 0.68
- relative viability (NCI-H1395; first compound 0.1 µM): 0.56
- relative viability (NCI-H1395; first compound 0.3162 µM): 0.456
- relative viability (NCI-H1395; first compound 1 µM): 0.363
- relative viability (HARA; first compound 0.01 µM): 0.308
- relative viability (HARA; first compound 0.03162 µM): 0.245
- relative viability (HARA; first compound 0.1 µM): 0.254
- relative viability (HARA; first compound 0.3162 µM): 0.31
- relative viability (HARA; first compound 1 µM): 0.265
- relative viability (NCI-H1437; first compound 0.01 µM): 0.357
- relative viability (NCI-H1437; first compound 0.03162 µM): 0.293
- relative viability (NCI-H1437; first compound 0.1 µM): 0.379
- relative viability (NCI-H1437; first compound 0.3162 µM): 0.41
- relative viability (NCI-H1437; first compound 1 µM): 0.35
- relative viability (NCI-H2009; first compound 0.01 µM): 0.155
- relative viability (NCI-H2009; first compound 0.03162 µM): 0.214
- relative viability (NCI-H2009; first compound 0.1 µM): 0.221
- relative viability (NCI-H2009; first compound 0.3162 µM): 0.175
- relative viability (NCI-H2009; first compound 1 µM): 0.13
- relative viability (LOU-NH91; first compound 0.01 µM): 0.528
- relative viability (LOU-NH91; first compound 0.03162 µM): 0.525
- relative viability (LOU-NH91; first compound 0.1 µM): 0.542
- relative viability (LOU-NH91; first compound 0.3162 µM): 0.609
- relative viability (LOU-NH91; first compound 1 µM): 0.503
- relative viability (SK-LU-1; first compound 0.01 µM): 0.364
- relative viability (SK-LU-1; first compound 0.03162 µM): 0.418
- relative viability (SK-LU-1; first compound 0.1 µM): 0.365
- relative viability (SK-LU-1; first compound 0.3162 µM): 0.232
- relative viability (SK-LU-1; first compound 1 µM): 0.232
- relative viability (NCI-H2170; first compound 0.01 µM): 0.437
- relative viability (NCI-H2170; first compound 0.03162 µM): 0.397
- relative viability (NCI-H2170; first compound 0.1 µM): 0.425
- relative viability (NCI-H2170; first compound 0.3162 µM): 0.424
- relative viability (NCI-H2170; first compound 1 µM): 0.415
- relative viability (BEN; first compound 0.01 µM): 0.476
- relative viability (BEN; first compound 0.03162 µM): 0.483
- relative viability (BEN; first compound 0.1 µM): 0.436
- relative viability (BEN; first compound 0.3162 µM): 0.422
- relative viability (BEN; first compound 1 µM): 0.366
- relative viability (HCC-827; first compound 0.01 µM): 0.544
- relative viability (HCC-827; first compound 0.03162 µM): 0.469
- relative viability (HCC-827; first compound 0.1 µM): 0.486
- relative viability (HCC-827; first compound 0.3162 µM): 0.498
- relative viability (HCC-827; first compound 1 µM): 0.303
- relative viability (NCI-H661; first compound 0.01 µM): 0.447
- relative viability (NCI-H661; first compound 0.03162 µM): 0.456
- relative viability (NCI-H661; first compound 0.1 µM): 0.497
- relative viability (NCI-H661; first compound 0.3162 µM): 0.461
- relative viability (NCI-H661; first compound 1 µM): 0.344
- relative viability (NCI-H1355; first compound 0.01 µM): 0.415
- relative viability (NCI-H1355; first compound 0.03162 µM): 0.389
- relative viability (NCI-H1355; first compound 0.1 µM): 0.389
- relative viability (NCI-H1355; first compound 0.3162 µM): 0.418
- relative viability (NCI-H1355; first compound 1 µM): 0.39
- relative viability (NCI-H2405; first compound 0.01 µM): 0.516
- relative viability (NCI-H2405; first compound 0.03162 µM): 0.538
- relative viability (NCI-H2405; first compound 0.1 µM): 0.465
- relative viability (NCI-H2405; first compound 0.3162 µM): 0.507
- relative viability (NCI-H2405; first compound 1 µM): 0.302
- relative viability (NCI-H1734; first compound 0.01 µM): 0.38
- relative viability (NCI-H1734; first compound 0.03162 µM): 0.364
- relative viability (NCI-H1734; first compound 0.1 µM): 0.395
- relative viability (NCI-H1734; first compound 0.3162 µM): 0.356
- relative viability (NCI-H1734; first compound 1 µM): 0.317
- relative viability (NCI-H2087; first compound 0.01 µM): 0.213
- relative viability (NCI-H2087; first compound 0.03162 µM): 0.298
- relative viability (NCI-H2087; first compound 0.1 µM): 0.243
- relative viability (NCI-H2087; first compound 0.3162 µM): 0.274
- relative viability (NCI-H2087; first compound 1 µM): 0.317
- relative viability (LC-2-ad; first compound 0.01 µM): 0.499
- relative viability (LC-2-ad; first compound 0.03162 µM): 0.521
- relative viability (LC-2-ad; first compound 0.1 µM): 0.463
- relative viability (LC-2-ad; first compound 0.3162 µM): 0.365
- relative viability (LC-2-ad; first compound 1 µM): 0.367
- relative viability (SK-MES-1; first compound 0.01 µM): 0.339
- relative viability (SK-MES-1; first compound 0.03162 µM): 0.337
- relative viability (SK-MES-1; first compound 0.1 µM): 0.328
- relative viability (SK-MES-1; first compound 0.3162 µM): 0.279
- relative viability (SK-MES-1; first compound 1 µM): 0.2
- relative viability (NCI-H2228; first compound 0.01 µM): 0.787
- relative viability (NCI-H2228; first compound 0.03162 µM): 0.937
- relative viability (NCI-H2228; first compound 0.1 µM): 0.896
- relative viability (NCI-H2228; first compound 0.3162 µM): 0.283
- relative viability (NCI-H2228; first compound 1 µM): 0.156
- relative viability (EKVX; first compound 0.01 µM): 0.414
- relative viability (EKVX; first compound 0.03162 µM): 0.415
- relative viability (EKVX; first compound 0.1 µM): 0.372
- relative viability (EKVX; first compound 0.3162 µM): 0.445
- relative viability (EKVX; first compound 1 µM): 0.299
- relative viability (NCI-H647; first compound 0.01 µM): 0.434
- relative viability (NCI-H647; first compound 0.03162 µM): 0.424
- relative viability (NCI-H647; first compound 0.1 µM): 0.359
- relative viability (NCI-H647; first compound 0.3162 µM): 0.163
- relative viability (NCI-H647; first compound 1 µM): 0.125
- relative viability (NCI-H1792; first compound 0.01 µM): 0.725
- relative viability (NCI-H1792; first compound 0.03162 µM): 0.705
- relative viability (NCI-H1792; first compound 0.1 µM): 0.677
- relative viability (NCI-H1792; first compound 0.3162 µM): 0.731
- relative viability (NCI-H1792; first compound 1 µM): 0.785
- relative viability (HCC-366; first compound 0.01 µM): 0.478
- relative viability (HCC-366; first compound 0.03162 µM): 0.387
- relative viability (HCC-366; first compound 0.1 µM): 0.407
- relative viability (HCC-366; first compound 0.3162 µM): 0.28
- relative viability (HCC-366; first compound 1 µM): 0.106
